Active and inactive are the calls of the source. No cut-off for these calls is given here.
Experiments:
[1] = system: Human immunodeficiency virus 1; assay: Antiviral activity against HIV1 expressing protease L10F/D30N/K45I/A71V/T74S mutant infected in human MT4 cells selected at 5 uM of nelfinavir by MTT assay; type: functional, organism-based; conditions: Human immunodeficiency virus 1, MT4
[2] = system: Human immunodeficiency virus 1; assay: Antiviral activity against HIV1 expressing protease L10I/L24I/M46I/V82I/I84V mutant infected in human MT4 cells selected after 50 passages of GRL-216 by MTT assay; type: functional, organism-based; conditions: Human immunodeficiency virus 1, MT4
[3] = system: Human immunodeficiency virus 1; assay: Antiviral activity against HIV1 expressing protease L10F/M46I/T91S mutant infected in human MT4 cells selected at 1 uM of GRL-246 by MTT assay; type: functional, organism-based; conditions: Human immunodeficiency virus 1, MT4
[4] = system: Human immunodeficiency virus 1; assay: Antiviral activity against HIV1 expressing protease L10F/M46M,I/Q61Q mutant infected in human MT4 cells selected at 1 uM of GRL-396 by MTT assay; type: functional, organism-based; conditions: Human immunodeficiency virus 1, MT4
[5] = system: Human immunodeficiency virus 1; assay: Antiviral activity against HIV1 expressing protease L10F/M46I/I54V/V82A mutant infected in human MT4 cells selected at 5 uM of Lopinavir by p24 Gag protein production inhibition assay; conditions: Human immunodeficiency virus 1, MT4
[6] = system: Human immunodeficiency virus 1; assay: Antiviral activity against HIV1 expressing protease L10I/G48V/I54V/A71V/I84V/L90M mutant infected in human MT4 cells selected at 5 uM of saquinavir by p24 Gag protein production inhibition assay; conditions: Human immunodeficiency virus 1, MT4
[7] = system: Human immunodeficiency virus 1; assay: Antiviral activity against HIV1 expressing protease L10F/M46I/I50V/A71V/I84V/L90M mutant infected in human MT4 cells selected at 5 uM of amprenavir by p24 Gag protein production inhibition assay; conditions: Human immunodeficiency virus 1, MT4
[8] = system: Human immunodeficiency virus 1; assay: Antiviral activity against HIV1 expressing protease L23I/E34Q/K43I/M46I/I50L/G51A/L63P/A71V/V82A/T91A mutant infected in human MT4 cells selected at 5 uM of atazanavir by p24 Gag protein production inhibition assay; conditions: Human immunodeficiency virus 1, MT4
[9] = system: Human immunodeficiency virus 1; assay: Antiviral activity against HIV1 LAI infected in human MT2 cells by MTT assay; type: functional, organism-based; conditions: Human immunodeficiency virus 1, LAI
[10] = Cytotoxicity against human MT2 cells after 7 days by MTT assay; type: cell-based
[11] = system: Human immunodeficiency virus 1; assay: Antiviral activity against HIV1 NL4-3 infected in human MT4 cells at 1 uM after 20 passages by MTT assay; type: functional, organism-based
[12] = system: Human immunodeficiency virus 1; assay: Antiviral activity against HIV1 NL4-3 infected in human MT4 cells at 1 uM after 33 passages by MTT assay; type: functional, organism-based
[13] = system: Human immunodeficiency virus 1; assay: Antiviral activity against HIV1 NL4-3 infected in human MT4 cells at 1 uM after 37 passages by MTT assay; type: functional, organism-based
[14] = system: Human immunodeficiency virus 1; assay: Antiviral activity against HIV1 NL4-3 infected in human MT4 cells after 50 passages by MTT assay; type: functional, organism-based
[15] = system: Human immunodeficiency virus 1; assay: Antiviral activity against HIV1 expressing protease L10F/M46L/I50V/A71Vmutant infected in human MT4 cells selected at 1 uM of GRL-286 by MTT assay; type: functional, organism-based; conditions: Human immunodeficiency virus 1, MT4
[16] = system: Human immunodeficiency virus 1; assay: Antiviral activity against wild type HIV1 NL4-3 infected in human MT4 cells by p24 Gag protein production inhibition assay; conditions: Human immunodeficiency virus 1, NL4-3, MT4
[17] = system: Human immunodeficiency virus 1; assay: Antiviral activity against wild type HIV1 ERS104 containing protease L63P mutant infected in human PHA-PBMC cells by p24 Gag protein production inhibition assay; conditions: Human immunodeficiency virus 1, ERS104, PBMC
[18] = system: Human immunodeficiency virus 1; assay: Antiviral activity against multidrug-resistant HIV1 isolate MM containing L10I, K43T, M46L, I54V, L63P, A71V, V82A, L90M, and Q92K mutant infected in human PHA-PBMC cells by p24 Gag protein production inhibition assay; conditions: Human immunodeficiency virus 1, isolate MM
[19] = system: Human immunodeficiency virus 1; assay: Antiviral activity against multidrug-resistant HIV1 isolate TM containing L10I, K14R, R41K, M46L, I54V, L63P, A71V, V82A, L90M, and I93L mutant infected in human PHA-PBMC cells by p24 Gag protein production inhibition assay; conditions: Human immunodeficiency virus 1, isolate TM
[20] = system: Human immunodeficiency virus 1; assay: Antiviral activity against multidrug-resistant HIV1 isolate G containing L10I, V11I, T12E, I15V, L19I,R41K, M46L, L63P, A71T, V82A, and L90M mutant infected in human PHA-PBMC cells by p24 Gag protein production inhibition assay; conditions: Human immunodeficiency virus 1, isolate G
[21] = system: Human immunodeficiency virus 1; assay: Antiviral activity against multidrug-resistant HIV1 isolate C containing protease L10I, I15V, K20R, L24I, M36I, M46L, I54V, I62V, L63P, K70Q, V82A, and L89M mutant infected in human PHA-PBMC cells by p24 Gag protein production inhibition assay; conditions: Human immunodeficiency virus 1, isolate C
[22] = system: Human immunodeficiency virus 1; assay: Antiviral activity against multidrug-resistant HIV1 isolate JSL containing L10I, L24I, I33F, E35D, M36I, N37S, M46L, I54V, R57K, I62V, L63P, A71V, G73S, and V82A mutant infected in human PHA-PBMC cells by p24 Gag protein production inhibition assay; conditions: Human immunodeficiency virus 1, isolate JSL
[23] = system: Human immunodeficiency virus 1; assay: Antiviral activity against multidrug-resistant HIV1 isolate B containing protease L10I, K14R, L33I, M36I,M46I, F53I, K55R, I62V, L63P, A71V, G73S, V82A, L90M, and I93L mutant infected in human PHA-PBMC cells by p24 Gag protein production inhibition assay; conditions: Human immunodeficiency virus 1, isolate B
[24] = Selectivity ratio of CC50 for human MT2 cells to EC50 for HIV1 LAI infected human MT2 cells; type: ADME, cell-based; conditions: MT2 cells (CC50) and HIV1 LAI infected MT2 cells (EC50)
[25] = system: Human immunodeficiency virus type 1 protease (Human immunodeficiency virus 1), Q72874 [L24I,V82I,I84V]; assay: Inhibition of protease L24I/V82I/I84V[…] dimerization in HIV1 infected in COS7 cells at 0.1 uM by FRET based assay; type: cell-based; conditions: COS-7
[26] = system: Human immunodeficiency virus 2; assay: Antiviral activity against HIV2 ROD infected in human MT2 cells by MTT assay; type: functional, organism-based; conditions: Human immunodeficiency virus 2, ISOLATE ROD
[27] = system: Human immunodeficiency virus 2; assay: Antiviral activity against HIV2 EHO infected in human MT2 cells by MTT assay; type: functional, organism-based; conditions: Human immunodeficiency virus 2, EHO

SMILES	EC50 [1] [nM]	EC50 [2] [nM]	EC50 [3] [nM]	EC50 [4] [nM]	EC50 [5] [nM]	EC50 [6] [nM]	EC50 [7] [nM]	EC50 [8] [nM]	EC50 [9] [nM]	CC50 at 168 h [10] [nM]	EC50 [15] [nM]	EC50 [16] [nM]	EC50 [17] [nM]	EC50 [18] [nM]	EC50 [19] [nM]	EC50 [20] [nM]	EC50 [21] [nM]	EC50 [22] [nM]	EC50 [23] [nM]	EC50 [26] [nM]	also measured
Cc1c(O)cccc1C(=O)N[C@@H](CSc1ccccc1)[C@H](O)CN1C[C@H]2CCCC[C@H]2C[C@H]1C(=O)NC(C)(C)C	> 1000	130	290	220	320	510	300	> 1000	–	–	–	–	–	–	–	–	–	–	–	–	–
COc1ccc2c(c1)OCCCCCCCCN(C[C@@H](O)[C@H](Cc1ccccc1)NC(=O)O[C@H]1CO[C@H]3OCC[C@H]31)S2(=O)=O	–	260	420	370	–	–	–	–	22	33300	> 1000	–	–	–	–	–	–	–	–	–	Activity [11]: inactive; Activity [12]: inactive; Activity [13]: inactive; Activity [14]: inactive
CC(C)(C)NC(=O)[C@@H]1C[C@@H]2CCCC[C@@H]2CN1C[C@@H](O)[C@H](Cc1ccccc1)NC(=O)[C@H](CC(N)=O)NC(=O)c1ccc2ccccc2n1	3	–	–	–	28	> 1000	26	31	–	–	–	5	8	190	260	30	32	300	270	–	–
CC(C)(C)NC(=O)[C@@H]1CN(Cc2cccnc2)CCN1C[C@@H](O)C[C@@H](Cc1ccccc1)C(=O)N[C@H]1c2ccccc2C[C@H]1O	–	–	–	–	–	–	–	–	–	–	–	–	43	> 1000	> 1000	340	> 1000	> 1000	> 1000	–	–
COc1ccc2c(c1)OC/C=C/CCCCN(C[C@@H](O)[C@H](Cc1ccccc1)NC(=O)O[C@H]1CO[C@H]3OCC[C@H]31)S2(=O)=O	–	240	370	520	–	–	–	–	14	44900	> 1000	–	–	–	–	–	–	–	–	–	selectivity ratio [24]: 3200; Activity [11]: inactive; Activity [12]: inactive; Activity [13]: inactive; Activity [14]: inactive; inhibition [25]: Active
CC(C)CN(C[C@@H](O)[C@H](Cc1ccccc1)NC(=O)O[C@H]1CO[C@H]2OCC[C@H]21)S(=O)(=O)c1ccc(N)cc1	–	–	29	16	25	–	290	–	–	–	–	–	–	–	–	–	–	–	–	10	–
Cc1cccc(C)c1OCC(=O)N[C@@H](Cc1ccccc1)[C@@H](O)C[C@H](Cc1ccccc1)NC(=O)[C@H](C(C)C)N1CCCNC1=O [LOPINAVIR]	37	190	330	280	> 1000	120	> 1000	> 1000	39	> 100000	> 1000	46	34	> 1000	> 1000	–	> 1000	> 1000	> 1000	28	EC50 [27]: 35 nM
CCC[C@@]1(CCc2ccccc2)CC(O)=C([C@H](CC)c2cccc(NS(=O)(=O)c3ccc(C(F)(F)F)cn3)c2)C(=O)O1	39	29	95	42	310	22	220	410	170	54100	37	320	120	350	380	240	380	230	180	330	EC50 [27]: 300 nM; selectivity ratio [24]: 320
COC(=O)N[C@H](C(=O)N[C@@H](Cc1ccccc1)[C@@H](O)CN(Cc1ccc(-c2ccccn2)cc1)NC(=O)[C@@H](NC(=O)OC)C(C)(C)C)C(C)(C)C [ATAZANAVIR]	27	14	32	24	36	210	6	> 1000	–	–	–	4	2	180	65	33	65	430	200	–	–
